According to patent EP0339978B1, “Fused polycyclic compounds, compositions, methods of manufacture, and their use as PAF antagonists, antihistamines and/or antiinflammatory agents” (SCHERING CORPORATION, priority 1988, dated 1989):

Tests used:
PAF = PAF antagonism in vitro assay: PAF-induced platelet aggregation in platelet-rich plasma; format: cell-based; settings: PAF 1-5 X 10^-8M, human PRP
Protocol: Preparation of platelet-rich plasma (PRP): Human blood (50 ml) is collected from healthy male donors. The blood is mixed with an anticoagulant solution (5 ml) containing sodium citrate (3.8%) and dextrose (2%). Blood is centrifuged at 110 X g for 15 min. and the supernatant PRP is carefully transferred into a polypropylene tube. Platelet-poor-plasma (PPP) is prepared by centrifuging PRP at 12,000 X g for 2 min. in a Beckman Microfuge B. PRP is used within 3 hours of drawing the blood.
Platelet Aggregation Assay: When an aggregating agent such as PAF is added to PRP, platelets aggregate. An aggregometer quantifies this aggregation by measuring light (infra-red) transmission through PRP and comparing it to transmission through PPP. The aggregation assays are performed using a dual-channel aggregometer (Model 440, Chrono-Log Corp., Havertown, PA). PRP (0.45 ml) in aggregometer curettes is continually stirred (37°C). Solutions of test compounds or vehicle are added to the PRP, and, after incubation for 2 min., 10-15 µl aliquots of pAF solution are added so as to achieve a final concentration of 1-5 X 10^-8M. Incubations are continued until the increase in light transmission reaches a maximum (usually about 2 min). Values for inhibition are calculated by comparing maximal aggregation obtained in the absence and the presence of the compound. For each experiment, a standard PAF antagonist, such as alprazolam, is used as a positive internal control. The inhibitory concentration is the concentration of compound in micromoles at which the indicated % inhibition of the aggregation is found, as measured by the light transmission through each sample of PRP as compared to that through each sample of PPP.

[1] = system: Cellular and Fluid Influx to Rat Pleural Cavity; test: Inhibition of cellular and fluid influx to rat pleural cavity (antiinflammatory activity assay); format: in vivo; settings: 25 mg 1 kg p.o., rats
Protocol: Compounds 3.0 of this invention are useful for the treatment of inflammation; thus, they are useful for the treatment of arthritus, bursitis, tendonitis, gout, and other inflammatory conditions. […] Protection against cellular and fluid influx strongly indicates antiinflammatory properties. D. Antiinflammatory Activity Assay Inhibition of Cellular and Fluid Influx to Rat Pleural Cavity. Groups of 4 male rats are injected in the penile vein with antigen (1 mg BSA in 0.2 mL of saline per rat) and 0.5 hour later injected in the pleural cavity with antibody (1.0 mg antibody protein in the IgG fraction of rabbit anti-BSA in 0.2 mL). […] After 4 hours the animals are killed with CO2, and the pleural cavities are opened and the exudate is drained into a graduated conical glass centrifuge tube containing indomethacin (1.8 ug) and nordihydroguaiaretic acid (NDGA) (15 ug) to block ex vivo metabolite synthesis. The volume of the exudate is measured. The cavity is then washed out with saline-EDTA to achieve a final volume of 5.0 mL. The number of cells is determined in a Coulter Counter. The cells are spun-down (1000 x g) and the exudate supernatant is added to 4 volumes of 95% ethanol and samples are kept on ice for 30 minutes. After removal of the protein precipitate (2,500 x g) the ethanol extract of the exudate is dried under N2 and then is stored at -20°C. […]

Row | Structure (SMILES) | Inhibition (%) (PAF; Dose 50 μm) | Inhibition (%) (PAF; Dose 12 μm) | Inhibition (%) (PAF; Dose 25 μm) | reduced cellular influx to the pleural cavity [1] [%] | reduced fluid influx to the pleural cavity [1] [%]
1 | COc1ccc(Cn2c(C)nc3c2CCc2ccccc2C3=C2CCN(C(C)=O)CC2)cc1 [compound 5] | 67 |  |  |  | 
2 | CC(=O)N1CCC(=C2c3ccccc3CCc3sc(C)nc32)CC1 [compound 4] | 100 | 29 | 71 |  | 
3 | O=C1c2ccccc2CCc2c1[nH]c1ccccc21 [Compound E, 11,12-Dihydrobenzo[5,6]cyclohepta[1,2-b]indol-6(5H)-one] |  |  |  | 65 | 25
